Test system: Erythrozyten-Aggregation
Test: Erythrocyte aggregation in human blood, Mini-Erythrozyten-Aggregometer (Myrenne)
Type: cell-based, Humanblut gesunder Spender
Conditions: 10⁻⁵ M, haematocrit 45 %, difference between control baseline and substance solution, two experiments, different donors, index dimensionless
Text: Die Bestimmung der Erythrozyten-Aggregation als Parameter für die Hämorheologie erfolgte mit dem Mini-Erythrozyten-Aggregometer der Fa. Myrenne, Roetgen¹). Als Maß gibt dieses Gerät einen dimensionslosen Index an, der mit steigender Aggregationstendenz zunimmt.
Die Untersuchungen wurden mit dem Humanblut gesunder Spender durchgeführt. Das auf einen Haematokrit von 45 % eingestellte Blut wurde mit der Kontrollösung oder den Substanzlösungen inkubiert. Anschließend wurde die Erythrozyten-Aggregation gemessen. Jede Substanz wurde bei einer Konzentration von 10⁻⁵ M untersucht. Pro Substanz wurden zwei Versuche mit dem Blut verschiedener Spender durchgeführt. Es wurde die Differenz der Aggregationsindices zwischen dem Ausgangswert der Kontrollösung und den Werten der Substanzlösung errechnet. Diese Werte sind in der folgenden Tabelle aufgelistet.

Structure (SMILES)	Differenz der Erythrozytenaggregationsindices (E₂-E₁)
CC1(C)CC(=O)Nc2ccc(-c3c[nH]c(-c4ccccc4)n3)cc21 [Beispiel 14, 3,4-Dihydro-4,4-dimethyl-6-[2-phenyl-4(1H)-imidazolyl]-2(1H)-chinolinon]	-7.2
CN1C(=O)C(C)(C)c2cc(-c3c[nH]c(-c4ccccc4)n3)ccc21 [Beispiel 17, 1,3-Dihydro-1,3,3-trimethyl-5-[2-phenyl-4(1H)-imidazolyl]-(2H)-indol-2-on]	-8.6
CCN1C(=O)C(C)(C)c2cc(-c3c[nH]c(-c4ccc(F)cc4)n3)ccc21 [Beispiel 5, 1,3-Dihydro-3,3-dimethyl-1-ethyl-5-[2-(4-fluorphenyl)-4(1H)-imidazolyl]-(2H)-indol-2-on]	-8.7
CC1(C)C(=O)Nc2ccc(-c3c[nH]c(-c4ccc(Cl)cc4)n3)cc21 [Beispiel 6, 1,3-Dihydro-3,3-dimethyl-5-[2-(4-chlorphenyl)-4(1H)-imidazolyl]-(2H)-indol-2-on]	-8.2

Source: patent EP0497852B1, “BICYCLO-IMIDAZOLES, PROCESS FOR PRODUCING THEM AND DRUGS CONTAINING THEM” (BOEHRINGER MANNHEIM GMBH, priority 1989, dated 1991)
